Paper PMC5882710, “Amphotericin B-conjugated polypeptide hydrogels as a novel innovative strategy for fungal infections” (Royal Society Open Science, 2018)

Test system: Candida albicans
Experiment: microbe, parasite or virus in culture
Assay type: cell-based
Details: MIC/MBC test, serial 2-fold dilution, 28°C, 24 h
Method: The minimum inhibitory concentration (MIC) of the Dex, AmB, Nap-FFDKY, Npx-FFDKY, Fmoc-FFDKY, Nap-AmB, Npx-AmB and Dex-AmB hydrogels was determined by a serial 2-fold dilution of test samples. Fourteen different concentrations of drugs and hydrogels were prepared in DMF solution. One millilitre of the fungal strain […] colony-forming unit (CFU)/tube was inoculated into each tube containing different concentrations (1 ml) of test samples and incubated at 28°C (200 rpm) for 24 h. The MIC was defined as the minimum concentration of the sample inhibiting the visible growth of the microorganism. The experiment was repeated at least three times. Based on the values of MIC, 0.1 ml of the fungal strain containing different concentrations of test samples which inhibited the visible growth of the microorganism was subcultivated on the Sabouraud's dextrose agar plates, and incubated at 28°C for 48 h. The minimum bactericidal concentration (MBC) determination was defined as the minimum concentration of the sample sterilizing the visible growth of the microorganism (lower than 5 CFU/plate). The experiment was repeated at least three times. Based on the values of MIC, the fungal strain containing 1 × MIC and 2 × MIC concentrations of test samples was incubated at 28°C. A test suspension containing 0.1 ml was taken out and used to evaluate fungus colonies at 0, 1, 2, 4, 6, 8, 12 and 24 h.

## C[C@@H]1C[C@H]2[C@@H]3CCC4=CC(=O)C=C[C@]4(C)[C@@]3(F)[C@@H](O)C[C@]2(C)[C@@]1(O)C(=O)CO [Dex, dexamethasone]
  antifungal effect against C. albicans (in words): less antifungal effective
